Assay [1] concerns the target Proto-oncogene tyrosine-protein kinase Src (Homo sapiens, UniProt P12931). In words: Inhibition of SRC (unknown origin) by Z'-LYTE assay.
Assay [2] has as its system 4T1. The assay can be described thus: Inhibition of colony formation in mouse 4T1 cells assessed as colony forming units at 1.25 uM incubated for 7 to 10 days by crystal violet staining based microscopic method (reference value: 364 +/- 46.4 No unit). The assay is classed as functional.
Assay [3] deals with 4T1. The assay can be described thus: Inhibition of colony formation in mouse 4T1 cells assessed as assessed as colony forming units at 2.5 uM incubated for 7 to 10 days by crystal violet staining based microscopic method (reference value: 364 +/- 46.4 No unit). The assay is classed as functional.
Assay [4] concerns 4T1. In words: Antitumor activity against mouse 4T1 cells implanted in BALB/c mouse assessed as median number of metastases per lung at 50 mg/kg, ig administered daily post implantation (reference value: 40.5). The format is functional.
Assay [5] deals with 4T1. In words: Antitumor activity against mouse 4T1 cells implanted in BALB/c mouse assessed as median number of metastases per lung at 100 mg/kg, ig administered daily post implantation (reference value: 40.5). The assay is classed as functional.
The test system of the next assay is B16. In words: Cytotoxicity against mouse B16 cells incubated for 48 hrs by MTT assay. The format is functional, cell-based. The note with it: B16, 48 h. On the technique in general: Tetrazolium dyes change colour on reduction, which living cells bring about.
The subject of the next assay is CT26. The assay can be described thus: Cytotoxicity against mouse CT26 cells incubated for 48 hrs by MTT assay. The format is functional, cell-based. The note with it: CT26, 48 h.
Assay [6] deals with 4T1. In words: Cytotoxicity against mouse 4T1 cells incubated for 48 hrs by MTT assay. The assay is classed as functional, cell-based. The following applies: 4T1, 48 h.
The test system of assay [7] is Lewis lung carcinoma cell line. In words: Cytotoxicity against mouse LLC cells incubated for 48 hrs by MTT assay. The format is functional, cell-based.
Assay [8] is described as follows: Cytotoxicity against mouse Meth-A cells incubated for 48 hrs by MTT assay. The format is functional, cell-based.
In another assay the test system is A549. The assay can be described thus: Cytotoxicity against human A549 cells incubated for 48 hrs by MTT assay. The format is functional, cell-based. The following applies: A549, 48 h.
The next assay concerns HeLa. In words: Cytotoxicity against human HeLa cells incubated for 48 hrs by MTT assay. The assay is classed as functional, cell-based.
For another assay, the system named is DU-145. The assay can be described thus: Cytotoxicity against human DU145 cells incubated for 48 hrs by MTT assay. The format is functional, cell-based. The note with it: DU-145, 48 h.
Assay [9] is described as follows: Cytotoxicity against mouse MM3MG cells incubated for 48 hrs by MTT assay. The assay is classed as functional, cell-based.
Another assay deals with HK-2. The assay can be described thus: Cytotoxicity against human HK2 cells incubated for 48 hrs by MTT assay. The note with it: HK-2, 48 h. The assay is classed as cell-based.
The next assay concerns L02. In words: Cytotoxicity against human L02 cells incubated for 48 hrs by MTT assay. The format is cell-based. The note with it: L02, 48 h.
Assay [10] in a line: Cytotoxicity against mouse DLA cells incubated for 48 hrs by trypan blue dye based assay. The assay is classed as functional, cell-based.
Assay [11] in a line: Cytotoxicity against mouse DLA cells incubated for 48 hrs by MTT assay. The assay is classed as functional, cell-based.
Assay [12] in a line: Cytotoxicity against mouse DLA cells incubated for 48 hrs by LDH release assay. The assay is classed as functional, cell-based. For orientation: LDH in the medium is a marker of cell lysis.
Assay [13] concerns NIH3T3. The assay can be described thus: Anti-invasive activity against mouse NIH/3T3 cells transfected with human AdoMetDC cDNA in sense orientation assessed as inhibition of cell invasion at 100 ng/ml incubated for 1 weeks by matrigel-based microscopic analysis relative to control. The note with it: NIH3T3, 168 h. The format is functional.
The test system of assay [14] is NIH3T3. In words: Anti-invasive activity against mouse NIH/3T3 cells transfected with human AdoMetDC cDNA in antisense orientation assessed as inhibition of cell invasion at 100 ng/ml incubated for 1 weeks by matrigel-based microscopic analysis relative to control. The assay is classed as functional. The following applies: NIH3T3, 168 h.
For assay [15], the system named is MDA-MB-231. In words: Anti-invasive activity against human MDA-MB-231 cells at 30 nM by crystal violet staining based Boyden chamber assay relative to control. The format is functional.
The target in assay [16] is Hepatocyte growth factor activator serine protease (Homo sapiens, UniProt Q04756). In words: Inhibition of recombinant HGFA serine protease domain (unknown origin) preincubated for 30 mins followed by Boc-QLR-AMC substrate addition by fluorescence assay.
Assay [17] addresses Suppressor of tumorigenicity 14 protein (Homo sapiens, UniProt Q9Y5Y6). The assay can be described thus: Inhibition of recombinant human matriptase preincubated for 30 mins followed by Boc-QLR-AMC substrate addition by fluorescence assay.
The target in the next assay is Serine protease hepsin (Homo sapiens, UniProt P05981). The assay can be described thus: Inhibition of recombinant human hepsin preincubated for 30 mins followed by Boc-QLR-AMC substrate addition by fluorescence assay.
The next assay has as its target Coagulation factor X (Homo sapiens, UniProt P00742). The assay can be described thus: Inhibition of recombinant factor 10a (unknown origin) preincubated for 30 mins followed by chromogenic substrate addition by fluorescence assay.
The target of another assay is Histone deacetylase 1 (Homo sapiens, UniProt Q13547). In words: Inhibition of HDAC1 (unknown origin) using Ac-peptide as substrate pretreated for 15 mins followed by substrate addition and measured after 60 mins by fluorescence assay.
Assay [18] deals with MDA-MB-231. The assay can be described thus: Cytotoxicity against human MDA-MB-231 cells incubated for 48 hrs by MTT assay. The format is functional, cell-based. The note with it: MDA-MB-231, 48 h.
Another assay addresses Tubulin (Homo sapiens) (UniProt P68371+Q9H4B7+P0DPH7+P68366+Q13509+Q71U36+P04350+Q3ZCM7+P07437+P68363+Q9BQE3+Q6PEY2+Q13885+Q9BVA1+Q9BUF5). In words: Inhibition of tubulin polymerization (unknown origin) at 3 uM incubated for 1 hr by fluorescence assay relative to control. The assay is classed as protein-complex assay.
The subject of another assay is HT-29. The assay can be described thus: Cytotoxicity against human HT-29 cells incubated for 72 hrs by MTT assay. The assay is classed as functional. The following applies: HT-29, 72 h.
The next assay concerns Jurkat. In words: Cytotoxicity against human Jurkat cells incubated for 72 hrs by MTT assay. The format is functional.
The test system of another assay is MIA PaCa-2. In words: Cytotoxicity against human MIAPaCa2 cells incubated for 24 hrs by MTT assay. The assay is classed as functional, cell-based. The note with it: MIA PaCa-2, 24 h.
The test system of a further assay is PANC-1. In words: Cytotoxicity against human PANC1 cells incubated for 24 hrs by MTT assay. The format is functional, cell-based. The note with it: PANC-1, 24 h.
Another assay concerns Capan-2. The assay can be described thus: Cytotoxicity against human Capan2 cells incubated for 24 hrs by MTT assay. The format is functional, cell-based. The following applies: Capan-2, 24 h.
Another assay relates to CFPAC-1. The assay can be described thus: Cytotoxicity against human CFPAC-1 cells incubated for 24 hrs by MTT assay. The format is functional, cell-based. The following applies: CFPAC-1, 24 h.
In a further assay the test system is L1210. In words: Growth inhibition of mouse L1210 cells by MTS assay. The assay is classed as functional, cell-based.
In a further assay the target is Prothrombin (Homo sapiens, UniProt P00734). In words: Inhibition of recombinant thrombin (unknown origin) preincubated for 30 mins followed by chromogenic substrate addition by fluorescence assay.
In another assay the test system is HepG2. The assay can be described thus: Cytotoxicity against human HepG2 cells incubated for 48 hrs by MTT assay. The format is functional, cell-based. The following applies: HepG2, 48 h.
For assay [19], the target named is Epidermal growth factor receptor (Homo sapiens) (UniProt P00533). In words: Inhibition of EGFR (unknown origin) at 10 uM by immunoassay relative to control.

Experimental findings from ChEMBL document CHEMBL4346675, “Multi-target compounds acting in cancer progression: Focus on thiosemicarbazone, thiazole and thiazolidinone analogues” (Eur J Med Chem, 2019) are described below.

Chain of Coagulation factor X (P00742 41-179 limits assumed): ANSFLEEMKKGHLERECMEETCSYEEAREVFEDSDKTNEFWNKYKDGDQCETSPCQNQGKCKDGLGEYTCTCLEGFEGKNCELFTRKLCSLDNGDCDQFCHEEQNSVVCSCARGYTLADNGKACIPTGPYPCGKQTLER
Chain of Coagulation factor X (P00742 235-488 limits assumed): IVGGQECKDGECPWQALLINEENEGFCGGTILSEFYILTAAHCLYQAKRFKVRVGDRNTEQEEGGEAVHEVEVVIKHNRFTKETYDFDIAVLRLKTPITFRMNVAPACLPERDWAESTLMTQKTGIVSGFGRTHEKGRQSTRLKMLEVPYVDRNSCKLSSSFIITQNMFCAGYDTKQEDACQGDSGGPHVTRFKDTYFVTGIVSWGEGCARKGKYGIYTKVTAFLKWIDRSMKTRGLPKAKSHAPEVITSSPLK
Chain of Hepatocyte growth factor activator serine protease (Q04756 373-407 limits assumed): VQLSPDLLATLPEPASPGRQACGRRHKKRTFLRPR
Chain of Hepatocyte growth factor activator serine protease (Q04756 408-655 limits assumed): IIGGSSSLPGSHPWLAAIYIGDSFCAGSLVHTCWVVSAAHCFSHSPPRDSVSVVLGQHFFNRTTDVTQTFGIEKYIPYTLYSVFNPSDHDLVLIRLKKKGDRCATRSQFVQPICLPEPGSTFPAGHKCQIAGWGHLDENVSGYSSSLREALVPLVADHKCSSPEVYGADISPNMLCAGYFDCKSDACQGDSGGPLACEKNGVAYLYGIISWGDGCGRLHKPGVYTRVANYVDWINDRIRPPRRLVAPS
Chain of Serine protease hepsin (P05981 1-162 limits assumed): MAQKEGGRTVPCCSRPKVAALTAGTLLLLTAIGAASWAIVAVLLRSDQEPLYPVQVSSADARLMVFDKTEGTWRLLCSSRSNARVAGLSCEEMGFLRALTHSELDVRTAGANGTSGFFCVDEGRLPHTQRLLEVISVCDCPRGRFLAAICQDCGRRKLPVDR
Chain of Serine protease hepsin (P05981 163-417 limits assumed): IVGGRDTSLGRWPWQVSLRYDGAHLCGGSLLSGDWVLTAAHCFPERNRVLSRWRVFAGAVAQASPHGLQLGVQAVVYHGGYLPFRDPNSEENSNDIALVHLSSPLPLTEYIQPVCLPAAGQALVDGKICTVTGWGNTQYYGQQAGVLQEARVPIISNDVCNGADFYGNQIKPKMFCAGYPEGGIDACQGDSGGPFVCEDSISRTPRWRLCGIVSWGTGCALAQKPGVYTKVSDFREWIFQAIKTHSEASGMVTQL
Chain of Suppressor of tumorigenicity 14 protein (Q9Y5Y6 whole entry): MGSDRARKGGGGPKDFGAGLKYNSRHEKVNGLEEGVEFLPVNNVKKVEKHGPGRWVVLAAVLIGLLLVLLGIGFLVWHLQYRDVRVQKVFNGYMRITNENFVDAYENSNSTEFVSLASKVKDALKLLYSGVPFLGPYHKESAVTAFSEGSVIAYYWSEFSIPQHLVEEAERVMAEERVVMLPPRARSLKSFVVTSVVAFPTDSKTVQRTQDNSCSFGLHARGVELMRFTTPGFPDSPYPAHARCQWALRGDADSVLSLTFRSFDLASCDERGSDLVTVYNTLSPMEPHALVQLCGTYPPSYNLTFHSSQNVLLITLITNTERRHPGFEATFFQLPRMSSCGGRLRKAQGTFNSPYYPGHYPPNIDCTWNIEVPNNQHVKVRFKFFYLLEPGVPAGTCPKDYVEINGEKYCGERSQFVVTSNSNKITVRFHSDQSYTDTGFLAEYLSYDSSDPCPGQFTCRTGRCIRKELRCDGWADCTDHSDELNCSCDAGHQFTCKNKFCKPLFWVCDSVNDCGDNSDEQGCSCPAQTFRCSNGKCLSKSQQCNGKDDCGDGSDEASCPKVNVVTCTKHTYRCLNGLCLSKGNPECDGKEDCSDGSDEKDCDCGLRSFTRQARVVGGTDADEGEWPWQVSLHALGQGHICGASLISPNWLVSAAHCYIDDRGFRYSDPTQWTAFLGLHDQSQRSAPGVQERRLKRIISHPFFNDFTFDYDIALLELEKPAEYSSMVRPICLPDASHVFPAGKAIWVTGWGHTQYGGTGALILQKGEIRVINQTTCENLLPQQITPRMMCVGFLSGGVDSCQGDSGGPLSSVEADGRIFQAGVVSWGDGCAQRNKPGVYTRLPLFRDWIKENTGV
Chain of Histone deacetylase 1 (Q13547 whole entry): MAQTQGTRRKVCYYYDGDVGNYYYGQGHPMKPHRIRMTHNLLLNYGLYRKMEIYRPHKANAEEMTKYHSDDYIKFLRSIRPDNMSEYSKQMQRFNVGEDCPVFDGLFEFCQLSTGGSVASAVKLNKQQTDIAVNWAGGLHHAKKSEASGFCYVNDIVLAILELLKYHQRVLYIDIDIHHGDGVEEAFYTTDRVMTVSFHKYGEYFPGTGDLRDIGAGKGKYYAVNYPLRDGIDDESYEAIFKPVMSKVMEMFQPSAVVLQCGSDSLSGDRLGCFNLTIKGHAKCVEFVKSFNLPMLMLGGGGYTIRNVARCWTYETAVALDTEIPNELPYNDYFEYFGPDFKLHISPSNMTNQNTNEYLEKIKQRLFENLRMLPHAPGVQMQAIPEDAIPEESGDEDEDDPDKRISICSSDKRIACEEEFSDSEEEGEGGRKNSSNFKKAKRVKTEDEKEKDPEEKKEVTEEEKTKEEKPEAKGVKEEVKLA
Chain of Proto-oncogene tyrosine-protein kinase Src (P12931 2-536 limits assumed): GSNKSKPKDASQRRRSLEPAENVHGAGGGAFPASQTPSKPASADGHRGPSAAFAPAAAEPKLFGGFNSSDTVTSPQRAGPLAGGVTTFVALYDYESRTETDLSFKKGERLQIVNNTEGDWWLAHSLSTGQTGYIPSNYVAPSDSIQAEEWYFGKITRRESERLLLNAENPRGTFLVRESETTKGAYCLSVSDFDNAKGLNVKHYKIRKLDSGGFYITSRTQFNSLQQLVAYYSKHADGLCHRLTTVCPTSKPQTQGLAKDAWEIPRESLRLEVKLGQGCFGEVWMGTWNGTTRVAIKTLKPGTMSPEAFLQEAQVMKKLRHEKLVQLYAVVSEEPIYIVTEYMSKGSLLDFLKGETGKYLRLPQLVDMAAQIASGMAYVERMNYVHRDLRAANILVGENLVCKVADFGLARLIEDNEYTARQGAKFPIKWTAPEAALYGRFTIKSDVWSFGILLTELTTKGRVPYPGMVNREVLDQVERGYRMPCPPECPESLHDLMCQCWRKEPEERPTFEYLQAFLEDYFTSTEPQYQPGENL
Chain of Epidermal growth factor receptor (Homo sapiens) (P00533 whole entry): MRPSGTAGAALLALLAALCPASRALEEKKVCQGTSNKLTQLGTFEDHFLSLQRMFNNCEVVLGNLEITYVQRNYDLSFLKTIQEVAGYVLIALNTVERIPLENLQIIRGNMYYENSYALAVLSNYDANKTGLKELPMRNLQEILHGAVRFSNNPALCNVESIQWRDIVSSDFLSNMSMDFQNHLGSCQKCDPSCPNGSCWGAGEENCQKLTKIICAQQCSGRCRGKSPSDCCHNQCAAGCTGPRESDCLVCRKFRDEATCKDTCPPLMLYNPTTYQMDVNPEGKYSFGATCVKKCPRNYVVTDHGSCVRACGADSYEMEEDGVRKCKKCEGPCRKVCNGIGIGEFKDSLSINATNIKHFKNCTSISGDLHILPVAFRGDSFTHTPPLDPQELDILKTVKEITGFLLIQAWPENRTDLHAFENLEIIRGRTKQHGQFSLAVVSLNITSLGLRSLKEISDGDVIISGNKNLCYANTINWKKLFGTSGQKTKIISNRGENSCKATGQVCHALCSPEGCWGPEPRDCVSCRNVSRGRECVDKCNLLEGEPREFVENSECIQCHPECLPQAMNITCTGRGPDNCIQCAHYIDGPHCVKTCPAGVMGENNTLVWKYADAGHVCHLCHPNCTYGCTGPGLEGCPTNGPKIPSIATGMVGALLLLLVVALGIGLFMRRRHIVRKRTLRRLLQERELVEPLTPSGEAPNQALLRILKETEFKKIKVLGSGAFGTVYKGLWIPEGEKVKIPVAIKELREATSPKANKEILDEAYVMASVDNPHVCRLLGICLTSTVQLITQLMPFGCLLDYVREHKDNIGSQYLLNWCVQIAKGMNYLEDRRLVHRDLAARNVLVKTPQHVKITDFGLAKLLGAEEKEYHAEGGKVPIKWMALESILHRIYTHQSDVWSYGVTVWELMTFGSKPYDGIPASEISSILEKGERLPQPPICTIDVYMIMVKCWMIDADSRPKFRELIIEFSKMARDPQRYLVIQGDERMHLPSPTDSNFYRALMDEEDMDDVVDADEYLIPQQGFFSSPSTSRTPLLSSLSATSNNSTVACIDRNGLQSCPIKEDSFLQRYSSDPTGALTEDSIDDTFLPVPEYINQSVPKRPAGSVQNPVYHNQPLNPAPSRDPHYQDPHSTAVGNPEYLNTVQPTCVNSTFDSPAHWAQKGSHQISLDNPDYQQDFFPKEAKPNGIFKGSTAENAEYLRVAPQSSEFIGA

By IC50 is commonly meant the midpoint of a concentration-inhibition curve. In [1], `Cc1nc(Nc2ncc(-c3ccccc3)s2)cc(N2CCN(CCO)CC2)n1` returned an IC50 of 97 nM.

In the case of `COc1ccccc1C(=O)Nc1ccc2nc(SCC(=O)NCc3ccc(Cl)cc3)sc2c1`, the Activity in the assay with 4T1 [2] is 189 CFU; in the assay with 4T1 [3], 56 CFU; in the assay with 4T1 [4], 19.5; in the assay on 4T1 [5], 6. Also, the 50% inhibitory concentration (IC50) in the assay on B16 came out at 5600 nM; in the assay on CT26, 4300 nM; in the assay with 4T1 [6], 1200 nM; in [7], 6500 nM; in assay [8], 12300 nM; with A549 it was 2400 nM. The IC50 with HeLa is 4300 nM; in the assay on DU-145, 1900 nM; in [9], greater than 40000 nM; with HK-2, greater than 40000 nM; in the assay with L02 it was greater than 40000 nM.

Consider `O=C(CN1CCN(c2nc3ccccc3s2)CC1)NNC(=O)c1ccc(Br)cc1`, for which the IC50 in assay [10] came to 25000 nM; in [11], 22600 nM; in assay [12], 23000 nM.

Usually inhibition stands for the drop in the measured response relative to a control, in per cent. For `C/C1=C/C(=O)O[C@@H]2C[C@@H](CC[C@H](C)/C=C\C=C\CC1)O[C@@](O)([C@@H]1CSC(=O)N1)C2` [LATRUNCULIN A], the inhibition at 0.1 µg/mL with NIH3T3 [13] and with NIH3T3 [14] was greater than 95% in each case. The compound further showed an Activity with MDA-MB-231 [15] of less than 50%.

Broadly, the Ki is the dissociation constant of the complex between target and ligand, obtained from inhibition or displacement. `CC(=O)N[C@@H](CCCCN)C(=O)N[C@@H](CCCNC(=N)N)C(=O)N[C@@H](CC(C)C)C(=O)N[C@@H](CCCNC(=N)N)C(=O)c1nc2ccc(C(=O)NCc3ccc(C(=O)O)cc3)cc2s1`: the Ki in assay [16] amounted to 3.7 nM; in [17], 2.5 nM; at Serine protease hepsin, 0.67 nM; at Coagulation factor X, 29 nM.

With `O=C(CCCOc1ccc(N2C(=O)CSC2c2ccc(Br)s2)cc1)NO` (configuration not stated), the concentration for half-maximal inhibition (IC50) on Histone deacetylase 1 stood at 73 nM.

As to `COc1ccc2c(c1)sc1nc(CCC(=O)c3ccc(OC)c(O)c3)cn12`, it took 1300 nM to reach half-maximal inhibition with MDA-MB-231 [18] (IC50). In addition, the inhibition against Tubulin (Homo sapiens) worked out at 59.2%.

One may read the CC50 as the concentration that lowers cell viability or growth by half. A higher CC50 goes with lower toxicity to the cells. With `CC/C(=N\Nc1nc(-c2ccc(OC)cc2)cs1)c1cccc(Br)c1`, the CC50 with HT-29 worked out at 62000 nM; in the assay on Jurkat, 114000 nM.

For the compound `O=c1[nH]cc(F)c(=O)[nH]1` [FLUOROURACIL], the half-inhibitory concentration (IC50) turned out to be 24300 nM with MIA PaCa-2, 62300 nM in the assay with PANC-1, 54200 nM in the assay on Capan-2 and 41200 nM with CFPAC-1.

Consider `COC(=O)Nc1nc2cc(C(=O)c3cccs3)ccc2[nH]1`, for which, on Tubulin (Homo sapiens), the inhibition worked out at 58.3%.

Regarding `CN(C(=S)NN=C(c1ccccn1)c1ccccn1)C1CCCCC1`, the 50% inhibitory concentration (IC50) with MIA PaCa-2 was found to be 5 nM; with PANC-1, 30 nM; in the assay with Capan-2, 20 nM; in the assay on CFPAC-1 it was 203 nM.

In the assay on MDA-MB-231 [18], `COc1ccc(C(=O)CCc2cn3c(n2)sc2ccccc23)cc1` registered an IC50 of 1200 nM. The compound further returned an inhibition at Tubulin (Homo sapiens) of 61.4%.

With `CN(C)C(=S)NN=C(c1ccccn1)c1ccccn1`, the IC50 with MIA PaCa-2 stood at 1 nM; with PANC-1 it was 4 nM; in the assay with Capan-2 it was 1 nM; in the assay with CFPAC-1, 200 nM.

For `NC(=S)N/N=C/c1ncccc1N` [TRIAPINE], the IC50 in the assay on L1210 was determined as 1300 nM.

Turning to `CC[C@H](NC(C)=O)C(=O)N[C@@H](CCCN)C(=O)N[C@@H](CC(C)C)C(=O)N[C@@H](CCCNC(=N)N)C(=O)c1nc2ccc(C(=O)NC3CCNCC3)cc2s1`, the Ki in assay [16] is 7.2 nM; in [17], 1.3 nM; at Serine protease hepsin it was 0.27 nM; on Prothrombin, 2950 nM; at Coagulation factor X, 447 nM.

As for `Nc1ccn([C@@H]2O[C@H](CO)[C@@H](O)C2(F)F)c(=O)n1` [GEMCITABINE], the IC50 was 16 nM in the assay on MIA PaCa-2, 11000 nM in the assay with PANC-1, 40800 nM in the assay on Capan-2 and 22 nM with CFPAC-1.

In the assay with HepG2, `Clc1ccc(/C=N\Nc2ccc(-c3nc4ccccc4s3)cc2)cc1` yielded an IC50 of 27 nM. Besides, in [19], the inhibition was 47.3%.

On to `C/C(=N\NC1SC=C(c2ccc3ccccc3c2)N1C)c1ccccn1` (configuration not stated), for which the half-maximal cytotoxic concentration (CC50) with HT-29 is 57800 nM; with Jurkat it was 16200 nM.

As to `O=C1c2ccccc2C(=O)N1C/C=N\N=c1\scc(-c2cccc([N+](=O)[O-])c2)n1-c1ccccc1`, the CC50 turned out to be 21300 nM with HT-29 and 21200 nM in the assay with Jurkat.
